Where “and” joins values, the source holds several entries; their conditions need not be identical. Identical values can stand only once. Entries after “also recorded” stand apart in the source; their conditions may differ.
How the values were obtained:
SARS-CoV-2 = assay: Anti-viral experiment with Golden Syrian hamsters: viral load in lungs and trachea; type: in vivo, Golden Syrian hamsters (Mesocricetus auratus); conditions: 1 mg/kg s.c. daily from day 1; for RNA - lung / RNA - trachea / titer - lung / titer - trachea: individual hamsters; for viral load in trachea versus untreated group (in words): TCID50
[1] = S-Calpeptin toxicity experiment in Golden Syrian hamsters (weight, blood cell count, histopathology); type: in vivo, Golden Syrian hamsters (Mesocricetus auratus); parameters: leukocytes / neutrophils / lymphocytes / monocytes: unit not given here; conditions: for leukocytes / lymphocytes / monocytes / neutrophils: blood cell count
[2] = 1 mg/kg S-Calpeptin, individual animals 1-3, 1 mg/kg
[3] = 2 mg/kg S-Calpeptin, individual animals 7-9, 2 mg/kg
[4] = 3 mg/kg S-Calpeptin, individual animals 10-12, 3 mg/kg

In the case of `CCCC[C@H](NC(=O)[C@H](CC(C)C)NC(=O)OCc1ccccc1)C(O)S(=O)(=O)[O-].[Na+]` (stereo partly drawn) [S-Calpeptin], the RNA - lung (SARS-CoV-2; day 3 p.i., 1 mg/kg) is reported as 2.194 SARS-CoV-2 RNA copies/β actin RNA copies and 2.076 SARS-CoV-2 RNA copies/β actin RNA copies and 2.135 SARS-CoV-2 RNA copies/β actin RNA copies and 5.784 SARS-CoV-2 RNA copies/β actin RNA copies and 2.611 SARS-CoV-2 RNA copies/β actin RNA copies, the RNA - trachea (SARS-CoV-2; day 3 p.i., 1 mg/kg) is reported as 2.441 SARS-CoV-2 RNA copies/β actin RNA copies and 1.131 SARS-CoV-2 RNA copies/β actin RNA copies and 3.086 SARS-CoV-2 RNA copies/β actin RNA copies and 1.769 SARS-CoV-2 RNA copies/β actin RNA copies and 1.594 SARS-CoV-2 RNA copies/β actin RNA copies and the titer - lung (SARS-CoV-2; day 3 p.i., 1 mg/kg) is reported as 10.089 log TCID50/g and 9.011 log TCID50/g and 10.277 log TCID50/g and 9.5756 log TCID50/g and 8.981 log TCID50/g. For the same compound, the titer - trachea (SARS-CoV-2; day 3 p.i., 1 mg/kg) was 5.2099 log TCID50/g and 3.791 log TCID50/g and 5.949 log TCID50/g and 7.023 log TCID50/g and 7.625 log TCID50/g, the RNA - lung (SARS-CoV-2; day 5 p.i., 1 mg/kg) was 2.363 SARS-CoV-2 RNA copies/β actin RNA copies and 1.994 SARS-CoV-2 RNA copies/β actin RNA copies and 2.073 SARS-CoV-2 RNA copies/β actin RNA copies and 2.178 SARS-CoV-2 RNA copies/β actin RNA copies and 1.943 SARS-CoV-2 RNA copies/β actin RNA copies and the RNA - trachea (SARS-CoV-2; day 5 p.i., 1 mg/kg) was 1.729 SARS-CoV-2 RNA copies/β actin RNA copies and 2.0935 SARS-CoV-2 RNA copies/β actin RNA copies and 2.166 SARS-CoV-2 RNA copies/β actin RNA copies and 1.097 SARS-CoV-2 RNA copies/β actin RNA copies and 1.597 SARS-CoV-2 RNA copies/β actin RNA copies. For the same compound, the titer - lung (SARS-CoV-2; day 5 p.i., 1 mg/kg) was 7.002 log TCID50/g and 7.059 log TCID50/g and 6.976 log TCID50/g and 7.092 log TCID50/g and 6.453 log TCID50/g, the titer - trachea (SARS-CoV-2; day 5 p.i., 1 mg/kg) was 0 log TCID50/g and 2.787 log TCID50/g and the titer - trachea (SARS-CoV-2; day 7 p.i.) was 0 log TCID50/g. For the same compound, the RNA - lung (SARS-CoV-2; day 7 p.i., 1 mg/kg) was 0.6096 SARS-CoV-2 RNA copies/β actin RNA copies and 0.8217 SARS-CoV-2 RNA copies/β actin RNA copies and 0.4837 SARS-CoV-2 RNA copies/β actin RNA copies and 0.3749 SARS-CoV-2 RNA copies/β actin RNA copies and 1.469 SARS-CoV-2 RNA copies/β actin RNA copies, the RNA - trachea (SARS-CoV-2; day 7 p.i., 1 mg/kg) was 0.3702 SARS-CoV-2 RNA copies/β actin RNA copies and -0.0169 SARS-CoV-2 RNA copies/β actin RNA copies and -0.6383 SARS-CoV-2 RNA copies/β actin RNA copies and 0.1661 SARS-CoV-2 RNA copies/β actin RNA copies and 0.09095 SARS-CoV-2 RNA copies/β actin RNA copies and the titer - lung (SARS-CoV-2; day 7 p.i., 1 mg/kg) was 0 log TCID50/g and 1.7736 log TCID50/g. The “viral load in lungs versus untreated group (in words)” value (SARS-CoV-2; hamsters, day 5 p.i., 1 mg/kg) was “lower SARS-CoV-2 titers in the treated group compared to the untreated group; also recorded: lower viral loads in their trachea and lungs”, the “viral load in trachea versus untreated group (in words)” value (SARS-CoV-2; hamsters, day 5 p.i., 1 mg/kg) was “statistically significant difference on TCID50 viral load in trachea; also recorded: reduces viral load in trachea; also recorded: significant reduction of the viral load in trachea on day 5; also recorded: the decrease was only statistically significant in the trachea” and the “viral load in trachea versus untreated group (in words)” value (SARS-CoV-2; hamsters, day 5 p.i., listed as sulfonated Calpeptin, 1 mg/kg) was “reduces the viral load in the trachea”. For the same compound, the “body weight, summarized data, average” value ([1]; 1 mg/kg S-Calpeptin, day 0, relative to day 0) was 100%, the “body weight, summarized data, average” value ([1]; 1 mg/kg S-Calpeptin, day 1, relative to day 0) was 100.862% and the “body weight, individual data” value ([1]; 1 mg/kg S-Calpeptin, day 2, individual animals A1-A3) was 124 g. For the same compound, the “body weight, summarized data, average” value ([1]; 1 mg/kg S-Calpeptin, day 2, relative to day 0) was 100.893%, the “body weight, summarized data, average” value ([1]; 1 mg/kg S-Calpeptin, day 3, relative to day 0) was 100.862% and the “body weight, summarized data, average” value ([1]; 1 mg/kg S-Calpeptin, day 4, relative to day 0) was 101.724%. The “body weight, summarized data, average” value ([1]; 1 mg/kg S-Calpeptin, day 5, relative to day 0) was 102.852%, the “body weight, summarized data, average” value ([1]; 1 mg/kg S-Calpeptin, day 6, relative to day 0) was 102.288% and the “body weight, summarized data, average” value ([1]; 2 mg/kg S-Calpeptin, day 0, relative to day 0) was 100%. The “body weight, summarized data, average” value ([1]; 2 mg/kg S-Calpeptin, day 1, relative to day 0) was 100.285%, the “body weight, summarized data, average” value ([1]; 2 mg/kg S-Calpeptin, day 2, relative to day 0) was 100.287% and the “body weight, individual data” value ([1]; 2 mg/kg S-Calpeptin, day 3, individual animals A7-A9) was 120 g. For the same compound, the “body weight, summarized data, average” value ([1]; 2 mg/kg S-Calpeptin, day 3, relative to day 0) was 101.388%, the “body weight, summarized data, average” value ([1]; 2 mg/kg S-Calpeptin, day 4, relative to day 0) was 100.836% and the “body weight, summarized data, average” value ([1]; 2 mg/kg S-Calpeptin, day 5, relative to day 0) was 101.368%. The “body weight, individual data” value ([1]; 2 mg/kg S-Calpeptin, day 6, individual animals A7-A9) was 120 g, the “body weight, summarized data, average” value ([1]; 2 mg/kg S-Calpeptin, day 6, relative to day 0) was 101.919% and the “body weight, individual data” value ([1]; 3 mg/kg S-Calpeptin, day 0, individual animals A10-A12) was 124 g and 135 g. The “body weight, summarized data, average” value ([1]; 3 mg/kg S-Calpeptin, day 0, relative to day 0) was 100%, the “body weight, individual data” value ([1]; 3 mg/kg S-Calpeptin, day 1, individual animals A10-A12) was 124 g and 135 g and the “body weight, summarized data, average” value ([1]; 3 mg/kg S-Calpeptin, day 1, relative to day 0) was 100.275%. For the same compound, the “body weight, individual data” value ([1]; 3 mg/kg S-Calpeptin, day 2, individual animals A10-A12) was 124 g and 135 g, the “body weight, summarized data, average” value ([1]; 3 mg/kg S-Calpeptin, day 2, relative to day 0) was 100.275% and the “body weight, summarized data, average” value ([1]; 3 mg/kg S-Calpeptin, day 3, relative to day 0) was 101.582%. For the same compound, the “body weight, summarized data, average” value ([1]; 3 mg/kg S-Calpeptin, day 4, relative to day 0) was 102.133%, the “body weight, summarized data, average” value ([1]; 3 mg/kg S-Calpeptin, day 5, relative to day 0) was 102.402% and the “body weight, summarized data, average” value ([1]; 3 mg/kg S-Calpeptin, day 6, relative to day 0) was 102.671%. The leukocytes [1, 2] was 4150 and 4010 and 4200, the lymphocytes [1, 2] was 2407 and 2366 and 2310 and the monocytes [1, 2] was 581 and 521 and 798. For the same compound, the neutrophils [1, 2] was 1079 and 1083 and 924, the leukocytes [1, 3] was 1780 and 2200 and 1620 and the lymphocytes [1, 3] was 1104 and 748 and 486. The monocytes [1, 3] was 214 and 352 and 680, the neutrophils [1, 3] was 427 and 1056 and 389 and the leukocytes [1, 4] was 3000 and 1360 and 2190. The lymphocytes [1, 4] was 1860 and 653 and 1270, the monocytes [1, 4] was 450 and 163 and 350 and the neutrophils [1, 4] was 630 and 517 and 569. The “blood cell count finding (in words)” value ([1]; hamsters, 2 mg/kg or 3 mg/kg s.c. daily, end of seven-days protocol) was “marked leukopenia; also recorded: blood leukopenia”, the “acute toxicity-related clinical signs or weight loss (in words)” value ([1]; hamsters, 1, 2 or 3 mg/kg s.c. daily) was “no signs of acute toxicity; also recorded: did not display acute toxicity-related clinical signs” and the “side effects (in words)” value ([1]; hamsters, daily dose of 1 mg/kg s.c. over seven days) was “no apparent side effects”.

Reference: publication PMC10584882 (Communications Biology, 2023)
